Data reported in patent US12459940B2, “Oxazole compound as multi-targeted inhibitor of IRAK4 and BTK” (SHANGHAI FOSUN PHARMACEUTICAL INDUSTRIAL DEVELOPMENT CO., …, priority 2019, dated 2025).

Test system: human B-cell lymphoma OCI-LY10 cell subcutaneous xenograft tumor
Experiment: Human B-cell lymphoma OCI-LY10 cell subcutaneous xenograft tumor mouse model
Format: in vivo
Conditions: 10 mpk, 18 days after the start of administration, p<0.001
Method: The objective of the experiment was to study the efficacy of WX001 as the test drug on human B-cell lymphoma OCI-LY10 cell subcutaneous xenograft tumor in CB17 SCID mouse model.
OCI-LY10 human B-cell lymphoma cells were cultured in a 37° C., 5% CO2 incubator.
OCI-LY10 tumor cells were cultured and passaged, and 0.2 mL (1×10^7 cells) OCI-LY10 cells were subcutaneously inoculated on the right back of each […] (with Matrigel, volume ratio 1:1), and the group administration was started when the average tumor volume reached 167 mm^3. The health status and death of animals were monitored every day, and routine examinations included observing the effects of tumor growth and drug treatment on daily behaviors of animals, such as behavioral activities, food intake and water intake, weight change (weight was measured twice a week), tumor size (tumor volume was measured twice a week), appearance signs or other abnormal conditions.
The experimental index was to investigate whether the tumor growth was inhibited, delayed or cured. Including the measurement of tumor volume (TV), and the calculation of the compound's anti-tumor efficacy using TGI (%) or the relative tumor proliferation rate T/C (%).
TV=0.5a×b^2, a and b represented the long diameter and short diameter of the tumor, respectively.
T/C %=TRTV/CRTV×100% (TRTV: RTV in treatment group; CRTV: RTV in negative control group). Relative tumor volume (RTV) was calculated according to the results of tumor measurement, and the calculation formula was RTV=Vt/V0, wherein V0 was the average tumor volume measured at the time of group administration (i.e., d0), Vt was the average tumor volume at a certain measurement, and TRTV and CRTV were the data taken at the same day.

C=CC(=O)N1CCC[C@@H](n2nc(-c3ccc(Oc4ccccc4)cc3)c3c(N)ncnc32)C1 [Ibrutinib, reference compound]
T/C value: 39% | TGI value: 85%
